Assay results taken from patent US20050118226A1, “Methods for treating ACAT-related diseases” (priority 2003, published 2005).
“Also recorded” adds a separate entry of the source.

Key:
Format in all cases: in vivo, mouse
Aβ1-40 and Aβ1-42 = assay: Sandwich ELISA of brain Aβ1-40 and Aβ1-42 in hAPP mice
Method: For Aβ determinations, frozen hemispheres were first homogenized in TBS-buffer (5 ml) containing a protease inhibitor cocktail (Protease Inhibitor Cocktail Set I, Calbiochem) and then centrifuged at 75000 g for 1 hour, as described elsewhere (Kawarabayashi et al., 2001). Supernatants were saved for soluble Aβ analyses (see below). Pellets were resuspended and further homogenized in 70% formic acid (1 ml), followed by centrifugation at 75000 g for 1 hour. Formic acid-supernatants were neutralized with 1M TRIS (19 ml) and used for ELISA determination (insoluble Aβ). Aβ1-40 and Aβ1-42 were assayed using commercially available ELISA kits (The Genetics Company®, Switzerland). Measurements were performed at least in duplicate. Soluble Aβ ELISAs: secreted Aβ1-40 and Aβ1-42 levels in the TBS homogenate were analyzed by a sandwich ELISA system as described previously using the following antibodies: Aβ40=MM27 33.1.1 capture, MM32 13.1.1 for detection; Aβ42=MM27 33.1.1 capture, MM26 4.1.3 for detection (Suzuki et al., 1994).
We next used a sandwich enzyme-linked immunosorbent assay (ELISA) to measure Aβ1-40 and Aβ1-42 levels in 70% formic acid extracts from brain homogenates (“insoluble” Aβ) and in the initial TBS fraction of the same homogenates (soluble Aβ). Similar to plaque load, Aβ levels varied widely, as expected in transgenic mice specifically at early stages of pathology (Johnson-Wood et al., 1997; Kawarabayashi et al., 2001). Treatment with CP-113,818 decreased Aβ1-40 and Aβ1-42 in the formic acid fraction to almost undetectable concentrations. […] Since brain extracts were obtained from entire hemispheres including cortices and hippocampi, the difference between male and female Aβ levels at this age was accentuated by the slowly developing amyloid pathology in male hippocampi (see FIG. 3B). When analyzed according to gender, only female “insoluble” Aβ was sufficiently elevated to obtain a highly significant decrease by CP-113,818 treatment, with Aβ1-40 down by 96% (p<0.014) and Aβ1-42 down by 90% (p<0.014; FIG. 5A). […] This decrease was statistically significant in both genders. Soluble Aβ1-40 levels were close to the limit of detection, but a trend toward decrease was observed (20%) in all animals, significant only in males (FIG. 5B).

endogenous APP = assay: Western blot of endogenous APP processing in brains of non-transgenic littermates
Method: (§1) For Western blot analyses, frozen hemispheres of non-transgenic littermates were homogenized in TBS buffer containing 5 mM EDTA, 1 mM 1,10-phenanthroline (ICN Biomedicals), 20 μM ALLN (BioMol) and a protease inhibitor mixture (Roche). Homogenates were centrifuged at 100000 g for 1 hour at +4° C. The supernatants were used for analyses of secreted APP forms and ApoE, while the pellets extracted with the homogenization buffer containing 1% Triton X-100 and 0.2% SDS. 120 μg of total protein were resolved on 4-12% or 12% NuPAGE Bis-Tris gels (Invitrogen) under reducing conditions, and Western blots were performed as described previously (Puglielli et al., 2001). For analysis of Notch-ICD (NICD), 250 μg of total protein was immunoprecipitated with an NICD-specific antibody (cleavage site (Val1744)-specific; Cell Signaling Technology) according to manufacturer's recommendations. Antibodies used for Western blots were R1736 (specific for sAPP-α; a gift from Dr. D. J. Selkoe, Brigham and Women's Hospital, Boston, Mass.), Abl4 (PS 1-NTF; a gift from Dr. S. E. Gandy, Thomas Jefferson University, Philadelphia, Pa.), Pen2 (a gift from Dr. S. S. Sisodia, University of Chicago, Chicago, Ill.), N-Cadherin (C32, C-terminal; BD Transduction Laboratories), ApoE (Santa Cruz Biotechnology), β-tubulin (Sigma), BACE1 and Nicastrin (Affinity BioReagents). Rbt×APP (CTF), 22C11 (APP-NTF) and Rbt×PSI (PS 1-CTF) were from Chemicon International. BACE stainings (N-terminal; Affinity BioReagents) were confirmed with two additional antibodies; Ms×BACE1 (Chemicon International) and BACE (C-terminal; Affinity BioReagents). Densitometric analyses were performed using the QuantityOne software package (Bio-Rad). Statistical significance was determined by Student's t test. For Western blot analyses shown in supplemental figures, neutralized formic acid fractions (approximately 100 μg of total protein) were precipitated by adding 50% trichloroacetic acid to 15.5% final concentration. After 30 min incubation and centrifugation at 4° C., the pellets were solubilized by adding 10 μl of 2M Tris base and 10 μl of 4×LDS-PAGE loading buffer (NuPage, Invitrogen). Before loading, the samples were incubated for 30 min at 37° C., freeze-thawed once and boiled. Western blot analysis was performed as described above.
Our previous cell-based studies have shown that ACAT inhibition reduces Aβ generation and alters APP processing by all three secretases (Puglielli et al., 2001). To determine whether CP-113,818 treatment modified brain APP processing in hAPP mice, we initially resolved formic acid-extracted brain proteins by SDS-PAGE to detect APP and its proteolytic derivatives. […]

[1] = tested on: γ-secretase complex components and substrates, BACE1, ApoE; assay: Western blot of γ-secretase components and substrates, BACE1 and ApoE in non-transgenic littermates
Method: as §1
Our previous cell-based studies have shown that ACAT inhibition reduces Aβ generation and alters APP processing by all three secretases (Puglielli et al., 2001). To determine whether CP-113,818 treatment modified brain APP processing in hAPP mice, we initially resolved formic acid-extracted brain proteins by SDS-PAGE to detect APP and its proteolytic derivatives. […] However, levels of the secreted cleavage products of both α- and β-secretases (sAPP) were reduced by treatment with the ACAT inhibitor albeit not nearly as dramatically as Aβ (FIG. 9). Inhibition of sAPP production in the absence of a change in CTFs was somewhat surprising, and possibly an artifact caused by formic acid extraction. Because tissue from treated hAPP mice had been extracted with formic acid or fixed for histological studies, we looked at levels of APP-CTFs in total brain lysates from the non-transgenic littermates used in the Morris water maze tests. Using non-transgenic animals for these experiments also afforded an assessment of the effects of CP-113,818 on endogenous APP processing. CP-113,818 reduced liver cholesterol/cholesteryl-esters and serum cholesterol of non-transgenic littermates similarly to the transgenic animals shown in FIG. 1C (data not shown). Endogenous mouse APP-CTF levels in brain lysates from CP-113,818-treated animals decreased by 44% when compared to placebo-treated mice (n=8, p<0.005, values normalized to APP holoprotein levels; FIG. 10A, B). We could not resolve C99 and C83 from these samples due to smearing in the low molecular weight range because of high protein load (FIG. 10A). […]

[2] = female hAPP mice, brain formic acid extracts
[3] = hAPP mice, all animals, brain formic acid extracts

## CCCCCCCC[C@H](SCCCCCC)C(=O)Nc1c(SC)cc(C)nc1SC [CP-113,818]
Aβ1-40 and Aβ1-42; [2]
  decrease in insoluble Aβ1-40, females: 96%
  decrease in insoluble Aβ1-42, females: 90%
Aβ1-40 and Aβ1-42; hAPP mice, TBS fraction lacking detergents
  reduction of soluble Aβ1-42: 34%
Aβ1-40 and Aβ1-42; [3]
  decrease in insoluble Aβ1-40: 92%
  decrease in insoluble Aβ1-42: 83%
Aβ1-40 and Aβ1-42; hAPP mice, insoluble Aβ
  Aβ1-42/Aβ1-40 ratio: no significant difference
Aβ1-40 and Aβ1-42; transgenic mice
  decrease of "insoluble" Aβ (summary): 83-99%
Endogenous APP
  decrease in the ratio between total sAPP and sAPPα: 36%
Endogenous APP; brain lysates, normalized to APP holoprotein, vs placebo
  decrease of endogenous mouse APP-CTF levels: 44%
Endogenous APP; soluble TBS fraction
  reduction of total sAPP: 19.1%
Endogenous APP; soluble TBS fraction, trend, n.s.
  decrease of sAPPα: 3.4%
[1]; immunoprecipitated from non-transgenic mouse brain lysates
  Notch intracellular domain (NICD) levels: statistically unchanged; also recorded: remained unchanged
[1]; non-transgenic brain lysates
  BACE protein levels: unchanged; also recorded: did not alter expression levels
  levels of N-cadherin-CTF1: unaffected; also recorded: remained unchanged
  levels of PS1 N- and C-terminal fragments, nicastrin, and pen-2: did not detect significant changes
  nicastrin maturation / maturation of γ-secretase complex: unaffected; also recorded: did not alter maturation
[1]; non-transgenic littermates, soluble TBS fraction
  expression of ApoE: unchanged; also recorded: did not alter expression levels
